# Experimental data reported in ChEMBL document CHEMBL1122789, “Synthesis and biological activity of structural analogues of the anticancer benzophenanthridine alkaloid nitidine chloride” (1984).
# The source made the active and inactive calls. The calls are words filed in the database; no cut-off is given here.
# Experiments:
# P388 [1] = experiment: Evaluated for percentage test/control (%T/C) in survival tumor system against P388 lymphocytic leukemia; format: functional, Mus musculus
# B16 = experiment: Evaluated for percentage test/control (%T/C) in survival tumor system against B16 melanocarcinoma at dose 20 mg/Kg; format: functional, Mus musculus
# L1210 = experiment: Evaluated for percentage test/control (%T/C) in survival tumor system against L1210 lymphoid leukemia; format: functional, Mus musculus
# KB = experiment: Evaluated in vitro for cytotoxicity against KB cell culture system; format: functional; details: Homo sapiens, read-out: ED50 (the source's name)
# P388 [2] = experiment: Evaluated for anticancer activity against P388 lymphocytic leukemia system at a dose of 200 mg/Kg; Inactive; format: functional; details: Mus musculus
compound,measurement,setting,value
COc1cc2c(ccc3c4cc(OC)c(OC)cc4c[n+](C)c23)cc1O.[Cl-] [FAGARONINE],T/C,P388 [1],265%
COc1cc2c[n+](C)c3c4cc5c(cc4ccc3c2cc1OC)OCO5.[Cl-] [NITIDINE CHLORIDE],T/C,B16,141%
same,T/C,L1210,136%
same,T/C,P388 [1],209%
COc1cc2cc(-c3ccc4c(c3)OCO4)[n+](C)cc2cc1OC.[Cl-],EC50,KB,5 ng/mL
same,Anticancer activity,P388 [2],inactive
